Assay results as given in ChEMBL document CHEMBL5705903, “A DNA Hypomethylation Signature Predicts Antitumor Activity of LSD1 Inhibitors in SCLC” (Cancer Cell, 2015).

Assays:
[1] = molecular target: Alpha-1B adrenergic receptor (Homo sapiens, UniProt P35368); assay: Agonist activity at Adrenergic a1B receptor (unknown origin); assay type: functional
Acetylcholinesterase = Acetylcholinesterase (Homo sapiens, UniProt P22303); assay: Inhibition of AChE (unknown origin)
[2] = molecular target: T1, 5-hydroxytryptamine receptor 2C (Homo sapiens, UniProt P28335); assay: Agonist activity at 5-HT2C receptor (unknown origin); assay type: functional
T1 sequence (P28335 whole entry): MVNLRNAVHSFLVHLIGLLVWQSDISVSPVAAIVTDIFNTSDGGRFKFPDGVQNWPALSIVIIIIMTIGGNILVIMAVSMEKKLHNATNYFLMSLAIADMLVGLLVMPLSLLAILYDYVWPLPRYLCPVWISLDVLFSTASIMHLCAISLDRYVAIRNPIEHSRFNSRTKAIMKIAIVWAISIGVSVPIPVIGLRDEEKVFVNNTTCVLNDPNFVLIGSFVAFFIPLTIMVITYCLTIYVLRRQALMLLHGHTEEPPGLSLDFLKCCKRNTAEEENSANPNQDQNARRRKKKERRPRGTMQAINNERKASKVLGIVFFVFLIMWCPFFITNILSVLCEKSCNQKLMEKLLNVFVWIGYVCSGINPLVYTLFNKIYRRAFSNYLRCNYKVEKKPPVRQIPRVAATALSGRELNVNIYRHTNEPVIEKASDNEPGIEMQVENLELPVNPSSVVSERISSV

D(2) dopamine receptor [3] = molecular target: T2, D(2) dopamine receptor (Homo sapiens, UniProt P14416); assay: Antagonist activity at Dopamine D2 receptor (unknown origin); assay type: functional
[4] = molecular target: Aryl hydrocarbon receptor (Homo sapiens, UniProt P35869); assay: Activation of AhR (unknown origin)
Aurora kinase B = Aurora kinase B (Homo sapiens, UniProt Q96GD4); assay: Inhibition of Aurora B (unknown origin)
[5] = molecular target: T3, Muscarinic acetylcholine receptor M2 (Homo sapiens, UniProt P08172); assay: Agonist activity at Muscarinic M2 receptor (unknown origin); assay type: functional
T3 sequence (P08172 whole entry): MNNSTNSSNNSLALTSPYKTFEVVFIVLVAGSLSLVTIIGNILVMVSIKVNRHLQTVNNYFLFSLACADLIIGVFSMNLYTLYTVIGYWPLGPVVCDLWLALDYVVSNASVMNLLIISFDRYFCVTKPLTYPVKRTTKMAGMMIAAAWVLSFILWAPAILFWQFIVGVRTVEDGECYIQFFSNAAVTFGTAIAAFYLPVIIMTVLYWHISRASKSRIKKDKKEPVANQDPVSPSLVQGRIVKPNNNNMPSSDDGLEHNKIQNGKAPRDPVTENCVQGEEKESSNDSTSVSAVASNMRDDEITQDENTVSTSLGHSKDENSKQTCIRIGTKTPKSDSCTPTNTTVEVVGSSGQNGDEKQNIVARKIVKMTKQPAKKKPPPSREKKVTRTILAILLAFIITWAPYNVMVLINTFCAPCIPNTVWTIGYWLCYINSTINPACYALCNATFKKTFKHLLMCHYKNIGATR

Substance-P receptor = Substance-P receptor (Homo sapiens, UniProt P25103); assay: Antagonist activity at NK1 receptor (unknown origin); assay type: functional
Histamine H1 receptor = Histamine H1 receptor (Homo sapiens, UniProt P35367); assay: Antagonist activity at Histamine H1 receptor (unknown origin); assay type: functional
[6] = molecular target: T3, Muscarinic acetylcholine receptor M2; assay: Antagonist activity at Muscarinic M2 receptor (unknown origin); assay type: functional
[7] = molecular target: cGMP-inhibited 3',5'-cyclic phosphodiesterase 3A (Homo sapiens, UniProt Q14432); assay: Inhibition of PDE3A (unknown origin)
[8] = molecular target: 5-hydroxytryptamine receptor 1B (Homo sapiens, UniProt P28222); assay: Agonist activity at 5-HT1B receptor (unknown origin); assay type: functional
[9] = molecular target: T4, Beta-2 adrenergic receptor (Homo sapiens, UniProt P07550); assay: Agonist activity at Adrenergic b2 receptor (unknown origin); assay type: functional
D(1A) dopamine receptor = D(1A) dopamine receptor (Homo sapiens, UniProt P21728); assay: Antagonist activity at Dopamine D1 receptor (unknown origin); assay type: functional
[10] = molecular target: Potassium voltage-gated channel subfamily A member 5 (Homo sapiens, UniProt P22460); assay: Inhibition of Kv1.5 (unknown origin)
[11] = molecular target: T5, Kappa-type opioid receptor (Homo sapiens, UniProt P41145); assay: Agonist activity at KOR (unknown origin); assay type: functional
[12] = molecular target: T4, Beta-2 adrenergic receptor; assay: Antagonist activity at Adrenergic b2 receptor (unknown origin); assay type: functional
[13] = molecular target: Sodium channel protein type 5 subunit alpha (Homo sapiens, UniProt Q14524); assay: Inhibition of Nav1.5 (unknown origin)
[14] = molecular target: Tyrosine-protein kinase Lck (Homo sapiens, UniProt P06239); assay: Inhibition of LCK (unknown origin)
Mu-type opioid receptor = Mu-type opioid receptor (Homo sapiens, UniProt P35372); assay: Agonist activity at MOR (unknown origin); assay type: functional
[15] = molecular target: 5-hydroxytryptamine receptor 2A (Homo sapiens, UniProt P28223); assay: Agonist activity at 5-HT2A receptor (unknown origin); assay type: functional
[16] = molecular target: Nuclear receptor subfamily 1 group I member 2 (Homo sapiens, UniProt O75469); assay: Activation of PXR (unknown origin)
[17] = Inhibition of COX (unknown origin); design: species or system Homo sapiens
[18] = molecular target: Voltage-gated potassium channel, IKs; KCNQ1(Kv7.1)/KCNE1(MinK) (Homo sapiens, UniProt P15382+P51787); assay: Inhibition of KCNQ1/minK (unknown origin); assay type: protein-complex assay
[19] = molecular target: Voltage-gated inwardly rectifying potassium channel KCNH2 (Homo sapiens, UniProt Q12809); assay: Inhibition of hERG (unknown origin); assay type: toxicity
[20] = molecular target: T6, Muscarinic acetylcholine receptor M1 (Homo sapiens, UniProt P11229); assay: Agonist activity at Muscarinic M1 receptor (unknown origin); assay type: functional
T6 sequence (P11229 whole entry): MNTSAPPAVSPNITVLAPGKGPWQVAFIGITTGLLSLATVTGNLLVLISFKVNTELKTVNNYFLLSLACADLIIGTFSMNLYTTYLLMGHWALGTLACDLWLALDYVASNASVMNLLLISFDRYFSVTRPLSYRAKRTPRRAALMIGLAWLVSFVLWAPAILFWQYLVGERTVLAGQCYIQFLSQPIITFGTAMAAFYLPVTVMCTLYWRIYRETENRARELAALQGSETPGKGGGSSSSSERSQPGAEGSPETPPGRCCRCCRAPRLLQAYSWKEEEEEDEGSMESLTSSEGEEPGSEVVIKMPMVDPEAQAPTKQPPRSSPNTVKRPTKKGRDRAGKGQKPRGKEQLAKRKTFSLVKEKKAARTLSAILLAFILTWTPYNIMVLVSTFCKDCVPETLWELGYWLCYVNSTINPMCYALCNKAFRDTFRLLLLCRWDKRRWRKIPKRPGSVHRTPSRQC

[21] = molecular target: T6, Muscarinic acetylcholine receptor M1; assay: Antagonist activity at Muscarinic M1 receptor (unknown origin); assay type: functional
Cannabinoid receptor 2 = Cannabinoid receptor 2 (Homo sapiens, UniProt P34972); assay: Agonist activity at Cannabinoid CB2 receptor (unknown origin); assay type: functional
Vasopressin V1a receptor = Vasopressin V1a receptor (Homo sapiens, UniProt P37288); assay: Antagonist activity at V1a receptor (unknown origin); assay type: functional
[22] = molecular target: T1, 5-hydroxytryptamine receptor 2C; assay: Antagonist activity at 5-HT2C receptor (unknown origin); assay type: functional
[23] = molecular target: T5, Kappa-type opioid receptor; assay: Antagonist activity at KOR (unknown origin); assay type: functional
D(2) dopamine receptor [24] = molecular target: T2, D(2) dopamine receptor; assay: Agonist activity at Dopamine D2 receptor (unknown origin); assay type: functional

T4 sequence (P07550 whole entry): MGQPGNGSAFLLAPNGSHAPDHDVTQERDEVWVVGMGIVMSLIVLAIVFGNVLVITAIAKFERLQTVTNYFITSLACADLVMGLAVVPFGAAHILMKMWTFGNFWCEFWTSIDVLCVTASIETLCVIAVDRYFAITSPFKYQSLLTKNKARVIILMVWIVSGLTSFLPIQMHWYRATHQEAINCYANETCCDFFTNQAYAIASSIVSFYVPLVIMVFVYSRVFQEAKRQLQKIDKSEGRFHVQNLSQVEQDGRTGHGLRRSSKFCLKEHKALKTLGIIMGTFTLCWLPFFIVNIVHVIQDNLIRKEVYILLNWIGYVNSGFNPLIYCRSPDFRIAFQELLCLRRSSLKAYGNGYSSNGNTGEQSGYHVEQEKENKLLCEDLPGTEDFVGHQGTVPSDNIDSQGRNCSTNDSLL
T2 sequence (P14416 whole entry): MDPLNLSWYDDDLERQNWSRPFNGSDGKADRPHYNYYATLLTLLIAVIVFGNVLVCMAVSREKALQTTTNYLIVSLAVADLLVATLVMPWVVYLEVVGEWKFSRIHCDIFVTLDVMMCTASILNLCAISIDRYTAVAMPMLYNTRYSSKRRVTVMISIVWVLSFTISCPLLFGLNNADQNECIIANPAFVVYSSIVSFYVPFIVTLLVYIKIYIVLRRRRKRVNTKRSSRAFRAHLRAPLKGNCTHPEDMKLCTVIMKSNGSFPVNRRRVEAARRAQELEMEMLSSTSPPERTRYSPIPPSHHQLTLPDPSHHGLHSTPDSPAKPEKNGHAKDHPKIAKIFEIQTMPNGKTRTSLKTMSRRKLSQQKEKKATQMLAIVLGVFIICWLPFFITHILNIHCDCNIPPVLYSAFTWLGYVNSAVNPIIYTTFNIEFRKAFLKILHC
T5 sequence (P41145 whole entry): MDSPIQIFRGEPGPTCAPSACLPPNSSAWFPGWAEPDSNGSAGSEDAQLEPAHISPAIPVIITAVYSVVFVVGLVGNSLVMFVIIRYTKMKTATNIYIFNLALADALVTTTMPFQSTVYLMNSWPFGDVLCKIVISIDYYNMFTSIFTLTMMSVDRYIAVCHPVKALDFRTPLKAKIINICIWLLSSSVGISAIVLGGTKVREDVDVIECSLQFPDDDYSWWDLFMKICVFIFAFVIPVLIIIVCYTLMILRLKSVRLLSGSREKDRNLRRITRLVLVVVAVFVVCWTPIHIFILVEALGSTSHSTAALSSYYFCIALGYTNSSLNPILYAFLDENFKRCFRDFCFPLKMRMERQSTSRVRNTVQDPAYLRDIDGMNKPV
Nuclear receptor subfamily 1 group I member 2, sequence (O75469 whole entry): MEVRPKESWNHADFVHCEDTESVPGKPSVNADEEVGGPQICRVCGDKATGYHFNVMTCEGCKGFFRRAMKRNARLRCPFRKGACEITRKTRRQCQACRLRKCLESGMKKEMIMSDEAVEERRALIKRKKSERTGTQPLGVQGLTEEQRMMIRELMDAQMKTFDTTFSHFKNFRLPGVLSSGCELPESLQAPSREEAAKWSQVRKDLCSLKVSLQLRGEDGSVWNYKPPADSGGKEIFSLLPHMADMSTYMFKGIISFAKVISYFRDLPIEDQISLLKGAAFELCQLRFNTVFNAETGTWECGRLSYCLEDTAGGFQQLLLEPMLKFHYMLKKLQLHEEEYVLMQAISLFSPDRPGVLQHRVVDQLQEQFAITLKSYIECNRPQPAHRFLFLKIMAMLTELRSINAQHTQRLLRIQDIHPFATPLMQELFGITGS
Substance-P receptor, sequence (P25103 whole entry): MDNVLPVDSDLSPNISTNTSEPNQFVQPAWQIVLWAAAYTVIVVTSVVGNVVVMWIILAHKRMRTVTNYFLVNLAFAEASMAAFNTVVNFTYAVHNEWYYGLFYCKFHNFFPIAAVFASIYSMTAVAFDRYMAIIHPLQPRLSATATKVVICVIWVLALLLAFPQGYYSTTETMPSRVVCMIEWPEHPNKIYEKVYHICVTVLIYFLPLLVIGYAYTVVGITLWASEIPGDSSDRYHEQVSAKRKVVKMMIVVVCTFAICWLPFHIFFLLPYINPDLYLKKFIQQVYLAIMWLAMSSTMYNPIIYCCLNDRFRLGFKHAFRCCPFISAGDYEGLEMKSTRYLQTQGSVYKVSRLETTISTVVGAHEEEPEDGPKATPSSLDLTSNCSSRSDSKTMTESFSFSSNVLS
Alpha-1B adrenergic receptor, sequence (P35368 whole entry): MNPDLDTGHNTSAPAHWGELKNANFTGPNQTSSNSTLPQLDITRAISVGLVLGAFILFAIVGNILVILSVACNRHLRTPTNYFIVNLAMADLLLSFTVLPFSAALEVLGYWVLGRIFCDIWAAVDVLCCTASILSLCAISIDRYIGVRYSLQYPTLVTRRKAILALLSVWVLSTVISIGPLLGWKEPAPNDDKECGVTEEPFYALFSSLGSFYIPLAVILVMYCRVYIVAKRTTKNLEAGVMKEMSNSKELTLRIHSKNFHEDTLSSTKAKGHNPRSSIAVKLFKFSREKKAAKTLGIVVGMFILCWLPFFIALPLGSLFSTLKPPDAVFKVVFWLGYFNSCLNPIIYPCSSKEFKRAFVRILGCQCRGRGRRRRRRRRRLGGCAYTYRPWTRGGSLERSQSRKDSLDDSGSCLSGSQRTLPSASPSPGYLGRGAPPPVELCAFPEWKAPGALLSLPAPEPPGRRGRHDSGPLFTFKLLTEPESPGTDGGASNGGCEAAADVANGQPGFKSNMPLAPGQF
Aryl hydrocarbon receptor, sequence (P35869 whole entry): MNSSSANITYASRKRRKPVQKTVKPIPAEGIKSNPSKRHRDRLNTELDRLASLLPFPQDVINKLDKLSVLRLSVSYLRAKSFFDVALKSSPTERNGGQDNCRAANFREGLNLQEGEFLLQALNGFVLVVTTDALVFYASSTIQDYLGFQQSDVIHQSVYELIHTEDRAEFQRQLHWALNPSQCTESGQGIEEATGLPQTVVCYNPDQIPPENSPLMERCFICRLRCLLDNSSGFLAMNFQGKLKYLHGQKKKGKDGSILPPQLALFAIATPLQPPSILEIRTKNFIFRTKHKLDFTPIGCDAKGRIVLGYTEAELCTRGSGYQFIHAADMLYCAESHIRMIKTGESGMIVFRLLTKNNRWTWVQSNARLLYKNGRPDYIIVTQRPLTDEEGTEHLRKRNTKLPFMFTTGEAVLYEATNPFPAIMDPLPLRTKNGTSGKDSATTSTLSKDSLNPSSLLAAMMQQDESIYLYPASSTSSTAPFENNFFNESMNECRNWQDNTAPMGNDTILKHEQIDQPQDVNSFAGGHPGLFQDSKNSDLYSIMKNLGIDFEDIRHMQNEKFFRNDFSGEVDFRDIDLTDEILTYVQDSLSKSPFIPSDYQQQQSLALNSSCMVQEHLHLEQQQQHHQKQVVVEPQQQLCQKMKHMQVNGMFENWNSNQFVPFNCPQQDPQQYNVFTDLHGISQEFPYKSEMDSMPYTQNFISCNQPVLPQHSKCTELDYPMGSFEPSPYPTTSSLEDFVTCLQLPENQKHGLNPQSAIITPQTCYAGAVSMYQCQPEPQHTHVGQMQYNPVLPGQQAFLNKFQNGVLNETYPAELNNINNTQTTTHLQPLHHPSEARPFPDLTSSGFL
Mu-type opioid receptor, sequence (P35372 whole entry): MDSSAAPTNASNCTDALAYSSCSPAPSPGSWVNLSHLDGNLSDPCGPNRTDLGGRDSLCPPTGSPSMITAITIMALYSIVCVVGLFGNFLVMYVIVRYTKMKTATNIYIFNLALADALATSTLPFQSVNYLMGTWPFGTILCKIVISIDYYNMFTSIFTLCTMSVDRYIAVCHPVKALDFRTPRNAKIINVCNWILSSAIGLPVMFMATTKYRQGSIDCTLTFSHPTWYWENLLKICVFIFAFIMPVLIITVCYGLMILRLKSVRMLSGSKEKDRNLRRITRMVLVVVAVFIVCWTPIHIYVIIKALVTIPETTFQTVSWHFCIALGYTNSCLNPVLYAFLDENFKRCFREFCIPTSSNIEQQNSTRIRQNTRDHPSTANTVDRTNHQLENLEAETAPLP
Histamine H1 receptor, sequence (P35367 whole entry): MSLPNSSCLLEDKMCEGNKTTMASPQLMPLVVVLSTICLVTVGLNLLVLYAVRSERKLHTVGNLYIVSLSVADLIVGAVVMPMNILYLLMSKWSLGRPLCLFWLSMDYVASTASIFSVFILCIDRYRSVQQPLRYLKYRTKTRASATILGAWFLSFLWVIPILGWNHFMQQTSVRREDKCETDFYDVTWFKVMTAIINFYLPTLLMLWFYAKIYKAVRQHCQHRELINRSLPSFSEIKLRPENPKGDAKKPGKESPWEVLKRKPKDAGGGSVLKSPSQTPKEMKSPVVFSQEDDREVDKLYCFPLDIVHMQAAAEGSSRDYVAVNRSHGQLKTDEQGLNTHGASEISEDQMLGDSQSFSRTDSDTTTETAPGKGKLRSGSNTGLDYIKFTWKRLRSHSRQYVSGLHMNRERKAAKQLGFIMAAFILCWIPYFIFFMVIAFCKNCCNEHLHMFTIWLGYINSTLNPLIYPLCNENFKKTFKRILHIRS
Vasopressin V1a receptor, sequence (P37288 whole entry): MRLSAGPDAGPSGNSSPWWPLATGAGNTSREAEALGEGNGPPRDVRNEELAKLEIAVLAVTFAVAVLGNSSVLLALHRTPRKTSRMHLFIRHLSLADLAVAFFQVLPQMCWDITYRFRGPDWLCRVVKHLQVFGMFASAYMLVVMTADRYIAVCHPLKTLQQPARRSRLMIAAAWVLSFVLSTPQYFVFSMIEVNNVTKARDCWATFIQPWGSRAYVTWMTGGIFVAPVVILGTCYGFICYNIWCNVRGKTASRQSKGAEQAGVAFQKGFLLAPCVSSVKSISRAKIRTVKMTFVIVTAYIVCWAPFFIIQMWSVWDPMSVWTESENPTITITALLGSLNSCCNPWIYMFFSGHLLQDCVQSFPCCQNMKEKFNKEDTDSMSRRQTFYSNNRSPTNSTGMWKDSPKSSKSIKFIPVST

Row | SMILES | EC50 [1] [µM] | IC50 (Acetylcholinesterase) [µM] | EC50 [2] [µM] | EC50 (D(2) dopamine receptor [3]) [µM] | EC50 [4] [µM] | IC50 (Aurora kinase B) [µM] | EC50 [5] [µM] | EC50 (Substance-P receptor) [µM] | EC50 (Histamine H1 receptor) [µM] | EC50 [6] [µM] | IC50 [7] [µM] | EC50 [8] [µM] | EC50 [9] [µM] | EC50 (D(1A) dopamine receptor) [µM] | IC50 [10] [µM] | EC50 [11] [µM] | EC50 [12] [µM] | IC50 [13] [µM] | IC50 [14] [µM] | EC50 (Mu-type opioid receptor) [µM] | further results
1 | c1ccc([C@@H]2C[C@H]2NC2CCNCC2)cc1 | > 25 | > 100 | > 25 | > 100 | > 100 | > 32 | > 30 | > 25 | > 25 | > 30 | > 100 | 5 | > 100 | > 100 | > 30 | > 100 | > 100 | > 100 | > 32 | > 100 | EC50 [15]: > 25 µM; EC50 [16]: > 30 µM; IC50 [17]: > 100 µM; IC50 [18]: > 25 µM; IC50 [19]: > 30 µM; EC50 [20]: > 30 µM; EC50 [21]: > 30 µM; EC50 (Cannabinoid receptor 2): > 100 µM; EC50 (Vasopressin V1a receptor): > 30 µM; EC50 [22]: > 25 µM; EC50 [23]: > 100 µM; EC50 (D(2) dopamine receptor [24]): > 100 µM
2 | O=C(O)c1ccc(CN2CCC(CN[C@@H]3C[C@H]3c3ccccc3)CC2)cc1 [GSK2879552] | > 40 | > 100 | > 40 | > 100 | > 100 | > 32 | > 16 | > 40 | > 40 | > 16 | > 100 | > 32 | > 32 | > 32 | > 30 | > 100 | > 32 | 80 | > 32 | > 100 | EC50 [15]: > 40 µM; EC50 [16]: > 30 µM; IC50 [17]: 25 µM; IC50 [18]: > 25 µM; IC50 [19]: > 25 µM; EC50 [20]: > 16 µM; EC50 [21]: > 16 µM; EC50 (Cannabinoid receptor 2): > 100 µM; EC50 (Vasopressin V1a receptor): > 30 µM; EC50 [22]: > 40 µM; EC50 [23]: > 100 µM; EC50 (D(2) dopamine receptor [24]): 20 µM
